Entries after “also recorded” stand apart in the source; their conditions may differ.
How the values were obtained:
[1] = CD refolding kinetics / triple helix folding rate of CMPs; format: physicochemical; conditions: after UV exposure; thermal quenching from 80° C. to 25° C.
Protocol: Circular dichroism spectroscopy. CD spectra were collected on JASCO 715 spectrophotometer equipped with a JASCO PTC-348 WI temperature controller and quartz cells (0.1 mm path length). CMP solutions (320 μL, 150 μM in 1×PBS) were stored at 4° C. for at least 24 hours before measurement. For photo-decaging, samples were exposed to 365 nm UV light for at least 30 minutes before the 4° C. incubation. The thermal melting studies were performed by measuring the ellipticity at 225 nm with 60° C./hr heating rate. Raw CD signal was normalized to mean residue ellipticity based on the peptide's length and concentration (Biopolymers 95:94-104 (2011)). Melting temperatures (Tm) were determined by fitting the mean residue ellipticity to a two-state model (Org Lett 8:4735-4738 (2006)). […] The CD spectra of intact and MMP-1 cleaved type I collagen (FIG. 12) was measured in 90 μg/mL protein solutions in 20 mM acetic acid buffer at 22° C. The 37° C. thermal stability profile (FIG. 2E, inset) was generated by monitoring the ellipticity at 222 nm immediately after transferring the cuvette to a temperature controlled cuvette holder pre-set to 37° C. The Tm values reported in this study are approximately 10° C. higher than the equilibrium Tm due to high heating rate (60° C./hr) (Biopolymers 73:682-688 (2004)).

[2] = molecular target: T1, MMP-1 digested type I collagen (Rattus norvegicus, UniProt P02454+P02466); assay: Staining of SDS-PAGE gels using photo-decaged CMP; format: binding; conditions: 6 μM, UV-activation
T1 construct: purchased BD Science (collagen); EMD Millipore (ProMMP-1); host or cells: rat tail; digested in house
Protocol: Staining of SDS-PAGE gels using photo-decaged CF(GPO)9 (SEQ ID NO: 10). MMP-1 digested type I collagen (3.5 μg) was separated by SDS-PAGE (4-12% polyacrylamide gel) under non-reducing condition, along with unstained protein ladder (Life technologies, LC5801). After washing, the gel was soaked in 6 μM CF^NB(GPO)9 (SEQ ID NO: 4) (or CF^SG9P9O9 (SEQ ID NO: 5)) in 1×PBS solution, followed by exposure to 365 nm UV light for 15 min, and 2.5 hr of staining. The gel was washed with deionized water and scanned using Typhoon 9410 Imager (GE Healthcare) with 488 nm fluorescence channel. Afterwards, the protein gel was stained by coomassie brilliant blue and imaged by Gel Doc EQ system (BioRad).

[3] = molecular target: T2, complement factor C1q (Homo sapiens, UniProt P02745+P02746+P02747); assay: SDS-PAGE staining of collagen-like protein C1q; format: binding; conditions: 6 μM, heat activated, 2 μg
T2 construct: Complement component C1q from human serum; purchased Sigma-Aldrich; host or cells: human serum
From the text: Acid soluble rat-tail type I collagen, bovine type II collagen, and mouse type IV collagen were purchased from BD Bioscience (San Jose, Calif.). Complement component C1q from human serum, fibronectin from bovine plasma, and laminin from Engelbreth-Holm-Swarm murine sarcoma basement membrane were purchased from Sigma-Aldrich. ProMMP-1, and p-aminophenylmercuric acetate were acquired from EMD millipore. Human umbilical vein endothelial cells (HUVECs) and EGM-2 cell growth media were obtained from Lonza (Walkersville, Md.). Precast NuPAGE® Novex 4-12% Bis-Tris Gel (1.0 mm, 12 well), Novex® Sharp unstained protein standard, and SDS-PAGE running buffer, sample buffer, and other SDS-PAGE reagents were purchased from Life Technologies.
(§1) SDS-PAGE staining and imaging. Proteins were resolved on NuPAGE® Novex 4-12% bis-tris gels under denaturating conditions using an XCell SureLock™ Mini-Cell electrophoresis system (Life Technologies). NuPAGE® MOPS SDS running buffer containing 50 mM MOPS, 50 mM Tris Base, 0.1% SDS, and 1 mM EDTA (pH 7.7) was used. […] The fluorescence intensities of the protein bands were quantified using GE ImageQuant™ TL software. After fluorescence imaging, all gels were further stained with coomassie brilliant blue (CB) G-250 (Bio-Rad) for 2-3 hr followed by washing, and imaging under white light illumination using a Gel Doc EQ system (BioRad).

[4] = tested on: streptococcal collagen-like protein Scl2.28CL; assay: SDS-PAGE staining of collagen-like protein Scl2.28CL; format: binding, Streptococcus pyogenes; conditions: 6 μM, heat activated, 2.5 μg, gel fixed with glutaraldehyde
Protocol: To prepare MMP-1 cleaved collagen chain fragments, proMMP-1 (1 μg) was activated by p-aminophenylmercuric acetate (1.1 mM) in 132.5 μL of TNC buffer (50 mM Tris-HCl, 0.15 M NaCl, 5 mM CaCl2, 0.02% NaN3, pH 7.5) at 37° C. for 3 hr, after which type I collagen (62.6 μg) was added to the activated MMP-1 solution and incubated at room temperature for at least 3 days. To obtain the cell lysate, confluent HUVECs cultured in EGM-2 media at 37° C. were lysed with lysis buffer (25 mM Tris-HCl, 0.5% Triton X-100, 200 mM NaCl, 2 mM EDTA, phosphatase and protease inhibitors; Roche Applied Science). The lysate solution was spun at 15,000 g for 15 min and the supernatant was collected. The recombinant streptococcal collagen-like protein Scl2.28CL was expressed and characterized following the methods introduced by Mohs et al. (J. Biol. Chem. 282, 29757-29765 (2007)).
as §1, with “Technologies).” for “Technologies). NuPAGE® MOPS SDS running buffer containing 50 mM MOPS, 50 mM Tris Base, 0.1% SDS, and 1 mM EDTA (pH 7.7) was used.”

T1 sequence (P02454 152-942 limits assumed): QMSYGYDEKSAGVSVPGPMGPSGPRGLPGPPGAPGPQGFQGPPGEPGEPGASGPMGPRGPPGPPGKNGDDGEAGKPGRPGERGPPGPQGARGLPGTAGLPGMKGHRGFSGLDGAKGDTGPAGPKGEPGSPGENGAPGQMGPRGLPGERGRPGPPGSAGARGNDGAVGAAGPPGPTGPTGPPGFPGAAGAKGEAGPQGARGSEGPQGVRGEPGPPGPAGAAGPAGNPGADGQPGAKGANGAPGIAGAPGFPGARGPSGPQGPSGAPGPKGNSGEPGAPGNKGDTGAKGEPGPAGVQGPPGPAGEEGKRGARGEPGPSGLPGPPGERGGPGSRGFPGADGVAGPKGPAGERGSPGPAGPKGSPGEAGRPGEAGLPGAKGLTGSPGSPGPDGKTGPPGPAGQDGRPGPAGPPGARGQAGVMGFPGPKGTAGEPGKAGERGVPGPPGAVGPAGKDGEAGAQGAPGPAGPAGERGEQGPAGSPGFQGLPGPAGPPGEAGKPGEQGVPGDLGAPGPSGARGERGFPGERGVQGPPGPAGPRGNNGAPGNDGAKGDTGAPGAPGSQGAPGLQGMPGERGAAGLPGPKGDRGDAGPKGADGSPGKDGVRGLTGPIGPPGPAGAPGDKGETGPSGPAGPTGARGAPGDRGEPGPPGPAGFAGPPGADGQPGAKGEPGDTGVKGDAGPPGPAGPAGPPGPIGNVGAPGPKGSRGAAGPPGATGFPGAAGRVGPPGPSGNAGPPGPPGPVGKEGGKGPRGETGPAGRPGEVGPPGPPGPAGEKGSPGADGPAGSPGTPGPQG
T1 sequence (P02454 943-1207 limits assumed): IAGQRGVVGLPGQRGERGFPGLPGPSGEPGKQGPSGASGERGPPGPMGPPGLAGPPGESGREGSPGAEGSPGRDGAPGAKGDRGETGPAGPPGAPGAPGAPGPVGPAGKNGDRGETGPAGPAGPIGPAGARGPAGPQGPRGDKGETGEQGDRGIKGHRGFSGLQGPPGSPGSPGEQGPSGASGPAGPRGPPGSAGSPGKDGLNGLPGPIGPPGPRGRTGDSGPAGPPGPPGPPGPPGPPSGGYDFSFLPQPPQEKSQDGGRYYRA
T1 sequence (P02466 86-871 limits assumed): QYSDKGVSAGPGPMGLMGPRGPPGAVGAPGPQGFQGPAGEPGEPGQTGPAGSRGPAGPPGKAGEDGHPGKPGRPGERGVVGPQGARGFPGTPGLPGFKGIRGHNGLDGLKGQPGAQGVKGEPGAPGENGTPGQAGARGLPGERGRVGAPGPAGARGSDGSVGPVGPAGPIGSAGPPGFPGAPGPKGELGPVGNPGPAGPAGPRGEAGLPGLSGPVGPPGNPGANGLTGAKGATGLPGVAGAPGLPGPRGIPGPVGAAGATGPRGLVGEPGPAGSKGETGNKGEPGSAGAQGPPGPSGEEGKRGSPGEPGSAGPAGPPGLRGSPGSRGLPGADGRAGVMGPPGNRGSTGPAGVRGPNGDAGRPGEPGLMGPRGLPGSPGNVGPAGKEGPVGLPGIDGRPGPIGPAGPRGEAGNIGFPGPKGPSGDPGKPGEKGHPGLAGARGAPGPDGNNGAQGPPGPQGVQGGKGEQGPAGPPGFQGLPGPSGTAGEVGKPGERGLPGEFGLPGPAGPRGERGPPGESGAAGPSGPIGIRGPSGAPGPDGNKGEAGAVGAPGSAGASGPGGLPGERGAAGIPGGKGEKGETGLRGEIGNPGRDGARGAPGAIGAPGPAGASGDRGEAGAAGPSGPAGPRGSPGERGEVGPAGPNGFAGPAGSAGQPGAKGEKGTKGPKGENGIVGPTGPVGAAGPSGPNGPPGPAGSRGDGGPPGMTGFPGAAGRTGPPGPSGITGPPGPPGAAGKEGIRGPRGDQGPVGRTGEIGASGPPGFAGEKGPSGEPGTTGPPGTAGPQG
T1 sequence (P02466 872-1125 limits assumed): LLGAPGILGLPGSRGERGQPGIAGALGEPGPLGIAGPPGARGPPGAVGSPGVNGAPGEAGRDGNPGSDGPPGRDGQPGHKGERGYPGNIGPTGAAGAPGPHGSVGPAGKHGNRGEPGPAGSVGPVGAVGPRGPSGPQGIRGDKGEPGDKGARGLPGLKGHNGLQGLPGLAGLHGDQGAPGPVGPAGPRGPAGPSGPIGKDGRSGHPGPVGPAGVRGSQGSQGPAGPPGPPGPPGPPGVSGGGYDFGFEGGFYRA
T2 sequence (P02745 23-245): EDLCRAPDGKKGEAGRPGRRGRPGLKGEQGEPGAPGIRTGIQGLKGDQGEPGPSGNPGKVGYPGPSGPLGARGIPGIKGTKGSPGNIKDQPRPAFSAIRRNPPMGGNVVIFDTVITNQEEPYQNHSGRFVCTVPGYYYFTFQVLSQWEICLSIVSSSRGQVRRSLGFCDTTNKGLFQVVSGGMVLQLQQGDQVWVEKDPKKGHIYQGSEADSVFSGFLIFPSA
T2 sequence (P02746 28-253): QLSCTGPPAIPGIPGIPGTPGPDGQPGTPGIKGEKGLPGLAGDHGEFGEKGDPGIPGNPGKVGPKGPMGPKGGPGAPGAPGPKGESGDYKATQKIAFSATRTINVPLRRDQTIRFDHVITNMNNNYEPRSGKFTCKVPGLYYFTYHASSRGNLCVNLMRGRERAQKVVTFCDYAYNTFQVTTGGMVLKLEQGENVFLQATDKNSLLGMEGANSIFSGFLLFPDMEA
T2 sequence (P02747 29-245): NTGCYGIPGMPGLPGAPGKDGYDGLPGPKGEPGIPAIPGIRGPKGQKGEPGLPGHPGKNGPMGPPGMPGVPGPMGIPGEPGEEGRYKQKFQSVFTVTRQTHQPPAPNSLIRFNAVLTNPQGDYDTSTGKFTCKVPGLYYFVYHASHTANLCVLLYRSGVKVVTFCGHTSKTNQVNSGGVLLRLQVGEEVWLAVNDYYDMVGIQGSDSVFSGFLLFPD

**Q.** Which “refolding kinetics (CD 225 nm)” value [1] does the source give for CF-GGG-(GPO)4^NBGPO(GPO)4 [CF^NB(GPO)9] here?
**A.** fast refolding kinetics

**Q.** And the “staining of MMP-1 digested collagen bands” value [2]?
**A.** able to stain the MMP-1 digested collagen bands

**Q.** And the “staining of protein ladder bands” value [2]?
**A.** No other bands from the protein ladder were stained

**Q.** With CF-GGG-(GPO)9 [CF(GPO)9] as the substance, how does the “staining of C1q chains” value [3] read?
**A.** almost as effectively as collagens

**Q.** And the “staining of Scl2.28CL bands” value [4]?
**A.** failed to stain; also recorded: almost no staining of the Scl2.28CL band

From patent US10426850B2, “Collagen mimetic peptides for targeting collagen strands for in vitro and in vivo imaging and therapeutic use” (The Johns Hopkins University, priority 2011, dated 2019)
